Where “and” joins values, the source holds several entries; their conditions need not be identical. Equal values may be shown once.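 How tested: cells in 96-well plates exposed to compound for 48 hours at five concentrations. The concentration for 50% growth inhibition is given as GI50. At the TGI there is no net growth.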

Among the test systems are NCI-H460 lung; OVCAR-3 ovarian; SNB-75 CNS; MALME-3M melanoma; SNB-19 CNS; HT29 colon; A498 renal; SK-MEL-28 melanoma; 786-0 renal; MOLT-4 leukemia.
Holding throughout (assay): NCI anticancer screen, dose series, 48 h

In the case of `COC1CCN(C(=O)c2cc(Cc3n[nH]c(=O)c4ccccc34)ccc2F)CC1`, the GI50 is 25.6 µM in the test with NCI-H460 lung; 74.1 µM with OVCAR-3 ovarian; 9.12 µM in the test on SNB-75 CNS; greater than 100 µM in the test with MALME-3M melanoma; 57.6 µM in the test with SNB-19 CNS; greater than 100 µM with HT29 colon. The GI50 in the test on A498 renal was greater than 41.2 µM; in the test on SK-MEL-28 melanoma, greater than 100 µM; in the test on 786-0 renal it was greater than 100 µM; with MOLT-4 leukemia it was 39.3 µM. Further, the TGI with NCI-H460 lung, in the test on OVCAR-3 ovarian, in the test on SNB-75 CNS, with MALME-3M melanoma, in the test with SNB-19 CNS and with HT29 colon was greater than 100 µM in each case. Also, the TGI with A498 renal, with SK-MEL-28 melanoma, with 786-0 renal and in the test with MOLT-4 leukemia was greater than 100 µM throughout.
Take `CN(Cc1cc(Br)cc(Br)c1O)Cc1cc(Br)cc(Br)c1O`: the GI50 in the test on NCI-H460 lung is 0.557 µM; in the test on OVCAR-3 ovarian, 1.42 µM; in the test on SNB-75 CNS, 12.9 µM; in the test on MALME-3M melanoma, 3.51 µM; in the test with SNB-19 CNS, 4.86 µM; with HT29 colon, 6.23 µM. The GI50 in the test on A498 renal was 4.08 µM; in the test on SK-MEL-28 melanoma it was 10.9 µM; with 786-0 renal, 1.42 µM; with MOLT-4 leukemia, 3.31 µM. The TGI in the test on NCI-H460 lung amounted to 13.2 µM; in the test on OVCAR-3 ovarian, 11.2 µM; in the test with SNB-75 CNS, 49.3 µM; in the test with MALME-3M melanoma, 22 µM; in the test on SNB-19 CNS it was 36 µM; in the test on HT29 colon, 19.9 µM. The TGI in the test with A498 renal worked out at 18.7 µM; with SK-MEL-28 melanoma it was 24.6 µM; in the test with 786-0 renal it was 14.6 µM; with MOLT-4 leukemia, 36.3 µM.
In the case of `O=C1C(=O)c2c(nc3ccc(Br)cn23)-c2ccccc21`, the GI50 with NCI-H460 lung is 1.09 µM; in the test on OVCAR-3 ovarian, 0.265 µM; in the test with SNB-75 CNS, 0.738 µM; in the test with MALME-3M melanoma, 0.19 µM; in the test with SNB-19 CNS, 1.41 µM; in the test on HT29 colon, 2.44 µM. Also, the GI50 in the test on A498 renal was 1.51 µM; in the test on SK-MEL-28 melanoma, 0.606 µM; with 786-0 renal, 1.85 µM; in the test on MOLT-4 leukemia it was 0.447 µM. In addition, the TGI in the test with NCI-H460 lung came to 2.69 µM; in the test on OVCAR-3 ovarian it was 0.889 µM; in the test with SNB-75 CNS, 2.37 µM; in the test with MALME-3M melanoma it was 0.371 µM; with SNB-19 CNS it was 2.72 µM; in the test on HT29 colon, 6.12 µM. In addition, the TGI in the test on A498 renal was determined as 2.87 µM; with SK-MEL-28 melanoma, 1.56 µM; in the test on 786-0 renal it was 3.36 µM; in the test on MOLT-4 leukemia, 2.22 µM.
Take `COC(=O)C(CC(C)C)NC(=O)NC12CC3CC(CC(F)(C3)C1)C2` (stereo not given): the TGI in the test with NCI-H460 lung, in the test on OVCAR-3 ovarian, with SNB-75 CNS, in the test with MALME-3M melanoma, in the test on SNB-19 CNS and in the test with HT29 colon was greater than 100 µM throughout. For the same compound, the TGI in the test with A498 renal, in the test on SK-MEL-28 melanoma, with 786-0 renal and in the test on MOLT-4 leukemia was greater than 100 µM each time.
With `CCCCCCCCCCCCCC1=NCCN1CCO`, the GI50 is 2.13 µM in the test on NCI-H460 lung; 2.73 µM in the test on OVCAR-3 ovarian; 2.3 µM in the test with SNB-75 CNS; 12.7 µM with MALME-3M melanoma; 9.59 µM with SNB-19 CNS; 2.81 µM in the test with HT29 colon. Also, the GI50 in the test with A498 renal is 2.75 µM; in the test on SK-MEL-28 melanoma, 1.99 µM; in the test with 786-0 renal, 5.17 µM; in the test with MOLT-4 leukemia it was 4.11 µM. The TGI in the test with NCI-H460 lung is 4.63 µM; in the test on OVCAR-3 ovarian, 6.48 µM; with SNB-75 CNS, 8.16 µM; with MALME-3M melanoma, 30.5 µM; with SNB-19 CNS, 26.8 µM; in the test on HT29 colon, greater than 28.6 µM. The TGI in the test with A498 renal is 14.6 µM; in the test with SK-MEL-28 melanoma it was 4.02 µM; in the test with 786-0 renal, 11.2 µM; in the test on MOLT-4 leukemia, greater than 100 µM.
Turning to `CN(C)CCNC(=O)C(C)(C)Oc1ccc(C(=O)c2ccc(Cl)cc2)cc1Cl`, the TGI is 20.4 µM in the test with NCI-H460 lung; 25.7 µM with OVCAR-3 ovarian; 24.8 µM in the test with SNB-75 CNS; 11.1 µM in the test with MALME-3M melanoma; 26 µM in the test with SNB-19 CNS; 8.18 µM and 9.21 µM with HT29 colon. Moreover, the TGI is 30.7 µM in the test with A498 renal; 5.14 µM and 3.58 µM in the test on SK-MEL-28 melanoma; 13.6 µM with 786-0 renal; greater than 59.8 µM in the test with MOLT-4 leukemia. For the same compound, the GI50 in the test with SNB-75 CNS was 9.71 µM; with MALME-3M melanoma, 3.9 µM; with SK-MEL-28 melanoma, 2.63 µM; in the test with 786-0 renal, 3.37 µM; with MOLT-4 leukemia, 3.26 µM.
On to `Cc1cc2c(cc1C)[n+](=O)c(C(=O)C/C(=N/OCCCc1ccccc1)C(=O)Nc1cc(Cl)ccc1Cl)c(C)n2[O-]`, for which the TGI with NCI-H460 lung, in the test with OVCAR-3 ovarian, in the test with SNB-75 CNS, in the test on MALME-3M melanoma, with SNB-19 CNS and with HT29 colon was greater than 100 µM each time. The TGI with A498 renal, in the test on SK-MEL-28 melanoma, in the test on 786-0 renal and in the test on MOLT-4 leukemia was greater than 100 µM in each case.
On to `CC[P+](C)(C)c1ccccc1`, for which the TGI with NCI-H460 lung, in the test on OVCAR-3 ovarian, in the test with SNB-75 CNS, with MALME-3M melanoma, in the test with SNB-19 CNS and in the test on HT29 colon was greater than 100 µM throughout. The TGI with A498 renal, with SK-MEL-28 melanoma, in the test with 786-0 renal and in the test with MOLT-4 leukemia was greater than 100 µM in each case.
As for `Clc1cccc(Cl)c1C1CSc2ccccc2N=C1c1ccccc1` (stereo not given), the GI50 was 4.04 µM in the test on NCI-H460 lung; 3.92 µM in the test on OVCAR-3 ovarian; 2.53 µM in the test with SNB-75 CNS; 10.9 µM in the test with MALME-3M melanoma; 11.5 µM in the test on SNB-19 CNS; 3.17 µM in the test with HT29 colon. Besides, the GI50 in the test with A498 renal was 13.1 µM; in the test with SK-MEL-28 melanoma, 4.82 µM; in the test on 786-0 renal it was 10.7 µM; in the test with MOLT-4 leukemia, 3.86 µM. In addition, the TGI with NCI-H460 lung was determined as 15.6 µM; with OVCAR-3 ovarian, 13.4 µM; with SNB-75 CNS, 17.2 µM; with MALME-3M melanoma, 27.8 µM; with SNB-19 CNS it was 24.6 µM; in the test on HT29 colon, 8.64 µM. Besides, the TGI came out at 26.6 µM in the test with A498 renal, 17.3 µM with SK-MEL-28 melanoma, 23 µM with 786-0 renal and 37.6 µM in the test on MOLT-4 leukemia.

Source of the values: PubChem BioAssay (NCI).
